Results reported in ChEMBL document CHEMBL4619714, “Amino acid prodrugs of NVR3-778: Design, synthesis and anti-HBV activity” (Bioorg Med Chem Lett, 2020).
In brackets after ≈: the same amount, converted by molar mass.

How the values were obtained:
Hepatitis B virus [1] = assay: Antiviral activity against Hepatitis B virus infected in human HepG2.2.15 cells by solid phase radioimmunoassay; assay type: functional, organism-based; conditions: HepG2 2.2.15
[2] = Cytotoxicity against human HepG2.2.15 cells; assay type: cell-based, HepG2 2.2.15
[3] = Selectivity index, ratio of CC50 for human HepG2.2.15 cells to IC50 for Hepatitis B virus; assay type: toxicity; conditions: read-out: Ratio CC50/IC50
Hepatitis B virus [4] = assay: Antiviral activity against Hepatitis B virus infected in C57BL/6 mouse assessed as reduction in viral DNA at 0.93 mmol/kg, po administered bid and measured on day 2 by qRT-PCR analysis; assay type: functional
[5] = AUC (0 to t) in ICR mouse at 50 mg/kg, po; assay type: ADME, organism-based; conditions: in vivo
[6] = Tmax in ICR mouse at 50 mg/kg, po; assay type: ADME, organism-based; conditions: in vivo
Hepatitis B virus [7] = assay: Antiviral activity against Hepatitis B virus infected in C57BL/6 mouse assessed as reduction in viral DNA at 0.93 mmol/kg, po administered bid and measured on day 4 by qRT-PCR analysis; assay type: functional
[8] = Cmax in ICR mouse at 50 mg/kg, po; assay type: ADME, organism-based; set-up: dose 50 mg/kg, route oral; conditions: in vivo
[9] = Half life in ICR mouse at 50 mg/kg, po; assay type: ADME, organism-based; conditions: in vivo
[10] = Solubility of compound at pH 2 by HPLC-UV analysis; assay type: physicochemical; conditions: buffer
[11] = MRT in ICR mouse at 50 mg/kg, po; assay type: ADME, organism-based; conditions: in vivo
[12] = Toxicity in C57BL/6 mouse infected with Hepatitis B virus assessed as reduction in body weight at 0.93 mmol/kg, po administered bid and observed for 6 days; assay type: organism-based; conditions: in vivo, 144 h
Hepatitis B virus [13] = assay: Antiviral activity against Hepatitis B virus infected in C57BL/6 mouse assessed as reduction in viral DNA at 0.1 mg/kg, po measured upto 6 days by qRT-PCR analysis; assay type: functional
[14] = Cmax in ICR mouse assessed as 4-fluoro-3-[(4-hydroxy-1-piperidyl)sulfonyl]-N-(3,4,5-trifluorophenyl)benzamide level at 50 mg/kg, po; assay type: ADME, organism-based; set-up: dose 50 mg/kg, route oral; conditions: in vivo
[15] = Toxicity in C57BL/6 mouse infected with Hepatitis B virus assessed as reduction in body weight at 0.23 and 0.93 mmol/kg, po administered bid and observed for 6 days; assay type: organism-based; conditions: in vivo, 144 h
[16] = Solubility of compound assessed as 4-fluoro-3-[(4-hydroxy-1-piperidyl)sulfonyl]-N-(3,4,5-trifluorophenyl)benzamide level at pH 2; assay type: physicochemical; conditions: buffer
Hepatitis B virus [17] = assay: Antiviral activity against Hepatitis B virus infected in orally dosed C57BL/6 mouse assessed as reduction in viral DNA administered bid for daily and measured upto 6 days by qRT-PCR analysis; assay type: functional, organism-based
[18] = Half life in ICR mouse assessed as 4-fluoro-3-[(4-hydroxy-1-piperidyl)sulfonyl]-N-(3,4,5-trifluorophenyl)benzamide level at 50 mg/kg, po; assay type: ADME, organism-based; conditions: in vivo
[19] = AUC (0 to t) in ICR mouse assessed as 4-fluoro-3-[(4-hydroxy-1-piperidyl)sulfonyl]-N-(3,4,5-trifluorophenyl)benzamide level at 50 mg/kg, po; assay type: ADME, organism-based; conditions: in vivo
[20] = Tmax in ICR mouse assessed as 4-fluoro-3-[(4-hydroxy-1-piperidyl)sulfonyl]-N-(3,4,5-trifluorophenyl)benzamide level at 50 mg/kg, po; assay type: ADME, organism-based; conditions: in vivo
[21] = MRT in ICR mouse assessed as 4-fluoro-3-[(4-hydroxy-1-piperidyl)sulfonyl]-N-(3,4,5-trifluorophenyl)benzamide level at 50 mg/kg, po; assay type: ADME, organism-based; conditions: in vivo

## CC(C)(C)[C@H](N)C(=O)OC1CCN(S(=O)(=O)c2cc(C(=O)Nc3cc(F)c(F)c(F)c3)ccc2F)CC1
Hepatitis B virus [1]
  IC50: 560 nM
[2]
  CC50: > 10 µM
[3]
  selectivity ratio: > 17.9

## O=C(Nc1cc(F)c(F)c(F)c1)c1ccc(F)c(S(=O)(=O)N2CCC(O)CC2)c1
Hepatitis B virus [1]
  IC50: 260 nM
Hepatitis B virus [4]
  Activity: 0.53 log10IU/ml
[2]
  CC50: 4.81 µM
[5]
  AUC(0-t): 456 µg·h/mL
[6]
  Tmax: 64.8 min
Hepatitis B virus [7]
  Activity: 0.6 log10IU/ml
[8]
  Cmax: 66100 ng/mL
[9]
  half-life: 488 min
[10]
  solubility: 3 µg/mL (≈ 6.94 µM)
[3]
  selectivity ratio: 18.5
[11]
  MRT: 10.7 h
[12]
  Activity: Non-Toxic

## N[C@@H](Cc1ccccc1)C(=O)OC1CCN(S(=O)(=O)c2cc(C(=O)Nc3cc(F)c(F)c(F)c3)ccc2F)CC1
Hepatitis B virus [1]
  IC50: 350 nM
[2]
  CC50: > 10 µM
[3]
  selectivity ratio: > 28.6

## CC(C)C[C@H](N)C(=O)OC1CCN(S(=O)(=O)c2cc(C(=O)Nc3cc(F)c(F)c(F)c3)ccc2F)CC1
Hepatitis B virus [1]
  IC50: 280 nM
[2]
  CC50: 5.77 µM
[3]
  selectivity ratio: 20.6

## C=C1[C@H](CO)[C@@H](O)C[C@@H]1n1cnc2c(=O)[nH]c(N)nc21.O [ENTECAVIR]
Hepatitis B virus [13]
  Activity: 1.67 log10IU/ml

## NCC(=O)OC1CCN(S(=O)(=O)c2cc(C(=O)Nc3cc(F)c(F)c(F)c3)ccc2F)CC1
Hepatitis B virus [1]
  IC50: 1400 nM
[2]
  CC50: > 10 µM
[3]
  selectivity ratio: > 7.1

## CCC(C)[C@H](N)C(=O)OC1CCN(S(=O)(=O)c2cc(C(=O)Nc3cc(F)c(F)c(F)c3)ccc2F)CC1 (some centres undefined)
Hepatitis B virus [1]
  IC50: 380 nM
[2]
  CC50: > 10 µM
[3]
  selectivity ratio: > 26.3

## C[C@H](N)C(=O)OC1CCN(S(=O)(=O)c2cc(C(=O)Nc3cc(F)c(F)c(F)c3)ccc2F)CC1
Hepatitis B virus [1]
  IC50: 280 nM
[2]
  CC50: 4.81 µM
[3]
  selectivity ratio: 17.2

## CC(C)[C@H](N)C(=O)OC1CCN(S(=O)(=O)c2cc(C(=O)Nc3cc(F)c(F)c(F)c3)ccc2F)CC1
Hepatitis B virus [1]
  IC50: 340 nM
[14]
  Cmax: 45.17 µg/mL
Hepatitis B virus [4]
  Activity: 0.75 log10IU/ml
[15]
  Activity: Non-Toxic
[16]
  solubility: 0.7 mg/mL (≈ 1320 µM)
[2]
  CC50: > 10 µM
Hepatitis B virus [17]
  Activity: Dose-dependent effect
[5]
  AUC(0-t): 6.65 µg·h/mL
[6]
  Tmax: 15 min
Hepatitis B virus [7]
  Activity: 0.67 log10IU/ml
[8]
  Cmax: 11500 ng/mL
[9]
  half-life: 73.8 min
[18]
  t1/2: 3.53 h
[19]
  AUCt: 258.9 µg·h/mL
[20]
  Tmax: 30 min
[21]
  MRT: 4.66 h
[3]
  selectivity ratio: > 29.4
[11]
  MRT: 0.97 h
